From patent publication US7767659B2, “Synthesis of naturally occurring ecteinascidins and related compounds” (Pharma Mar, S.A., priority 2002, dated 2010)

Legend:
A-549 = assay: cells; settings: Homo sapiens, A549, 48 h; for GI50: read-out: A549 GI50; for CC50: read-out: A549 LC50; for IC (TGI): read-out: A549 TGI
In short: (§1)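 Colorimetric SRB read (490 nm) on triplicate wells after 48 h at 37 °C, 5% CO2. Dose range 10 to 10^−8 μg/ml; 5×10^3 cells/well pre-attached 18 h.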

LoVo = assay: cells; settings: Homo sapiens, LoVo, 48 h; for GI50: read-out: LOVO GI50; for CC50: read-out: LOVO LC50; for IC (TGI): read-out: LOVO TGI
In short: as §1

HT-29 = assay: cells; settings: Homo sapiens, HT-29, 48 h; for GI50: read-out: HT29 GI50; for CC50: read-out: HT29 LC50; for IC (TGI): read-out: HT29 TGI
In short: as §1

SK-BR-3 = assay: Inhibition of cells growth by colorimetric assay (SRB); settings: Homo sapiens, SK-BR-3, 48 h; for GI50: read-out: SK-BR3 GI50; for CC50: read-out: SK-BR3 LC50; for IC (TGI): read-out: SK-BR3 TGI
In short: as §1

K-562 = assay: as above; settings: Homo sapiens, K562, 48 h; for GI50: read-out: K562 GI50; for CC50: read-out: K562 LC50; for IC (TGI): read-out: K562 TGI
In short: as §1

HeLa = assay: as above; settings: Homo sapiens, HeLa, 48 h; for GI50: read-out: HELA GI50; for CC50: read-out: HELA LC50; for IC (TGI): read-out: HELA TGI
In short: as §1

SK-MEL-28 = assay: as above; settings: Homo sapiens, SK-MEL-28, 48 h; for GI50: read-out: MEL-28 GI50; for CC50: read-out: MEL-28 LC50; for IC (TGI): read-out: MEL-28 TGI
In short: as §1

LNCaP = assay: as above; settings: Homo sapiens, LNCaP, 48 h; for GI50: read-out: LNCAP GI50; for CC50: read-out: LNCAP LC50; for IC (TGI): read-out: LNCAP TGI
In short: as §1

PANC-1 = assay: as above; settings: Homo sapiens, PANC-1, 48 h; for GI50: read-out: PANC-1 GI50; for CC50: read-out: PANC-1 LC50; for IC (TGI): read-out: PANC-1 TGI
In short: as §1

LoVo-Dox = assay: as above; settings: Homo sapiens, 48 h; for GI50: read-out: LOVO-DOX GI50; for CC50: read-out: LOVO-DOX LC50; for IC (TGI): read-out: LOVO-DOX TGI
In short: as §1

HeLa-APL = assay: as above; settings: Homo sapiens, 48 h; for GI50: read-out: HELA-APL GI50; for CC50: read-out: HELA-APL LC50; for IC (TGI): read-out: HELA-APL TGI
In short: as §1

IGROV-ET = assay: as above; settings: Homo sapiens, 48 h; for GI50: read-out: IGROV-ET GI50; for CC50: read-out: IGROV-ET LC50; for IC (TGI): read-out: IGROV-ET TGI
In short: as §1

IGROV-1 = assay: as above; settings: Homo sapiens, IGROV-1, 48 h; for GI50: read-out: IGROV GI50; for CC50: read-out: IGROV LC50; for IC (TGI): read-out: IGROV TGI
In short: as §1

DU-145 = assay: as above; settings: Homo sapiens, DU-145, 48 h; for GI50: read-out: DU145 GI50; for CC50: read-out: DU145 LC50; for IC (TGI): read-out: DU145 TGI
In short: as §1

SMILES: C=CCN1[C@@H]2c3c(cc(C)c(OC)c3O)C[C@H]1[C@H](C#N)N1C2[C@@H]2SC[C@]3(NCCc4c3[nH]c3ccc(O)cc43)C(=O)OC[C@H]1c1c3c(c(C)c(OC(C)=O)c12)OCO3 (stereo partly drawn) [compound 57]
- GI50 (A-549): 37.4 nM
- CC50 (A-549): 1500 nM
- IC (TGI) (A-549): 101 nM
- GI50 (LoVo): 85.9 nM
- CC50 (LoVo): 877 nM
- IC (TGI) (LoVo): 274 nM
- GI50 (HT-29): 44.6 nM
- CC50 (HT-29): 12200 nM
- IC (TGI) (HT-29): 4380 nM
- GI50 (SK-BR-3): 6.42 nM
- CC50 (SK-BR-3): 382 nM
- IC (TGI) (SK-BR-3): 31.8 nM
- GI50 (K-562): 8.82 nM
- CC50 (K-562): 12200 nM
- IC (TGI) (K-562): 88.8 nM
- GI50 (HeLa): 26.8 nM
- CC50 (HeLa): 112 nM
- IC (TGI) (HeLa): 56.4 nM
- GI50 (SK-MEL-28): 29.3 nM
- CC50 (SK-MEL-28): 106 nM
- IC (TGI) (SK-MEL-28): 55.6 nM
- GI50 (LNCaP): 15.1 nM
- CC50 (LNCaP): 69.3 nM
- IC (TGI) (LNCaP): 32.3 nM
- GI50 (PANC-1): 52.9 nM
- CC50 (PANC-1): 12200 nM
- IC (TGI) (PANC-1): 1340 nM
- GI50 (LoVo-Dox): 774 nM
- CC50 (LoVo-Dox): 12200 nM
- IC (TGI) (LoVo-Dox): 6220 nM
- GI50 (HeLa-APL): 22.3 nM
- CC50 (HeLa-APL): 115 nM
- IC (TGI) (HeLa-APL): 50.5 nM
- GI50 (IGROV-ET): 252 nM
- CC50 (IGROV-ET): 1170 nM
- IC (TGI) (IGROV-ET): 544 nM
- GI50 (IGROV-1): 28.8 nM
- CC50 (IGROV-1): 6480 nM
- IC (TGI) (IGROV-1): 66 nM
- GI50 (DU-145): 52.1 nM
- CC50 (DU-145): 12200 nM
- IC (TGI) (DU-145): 12200 nM

SMILES: C=CCN1[C@@H]2c3c(cc(C)c(OC)c3O)C[C@H]1[C@H](C#N)N1C2[C@@H]2SC[C@]3(NCCc4c3[nH]c3ccc(C)cc43)C(=O)OC[C@H]1c1c3c(c(C)c(OC(C)=O)c12)OCO3 (stereo partly drawn) [compound 58]
- GI50 (A-549): 216 nM
- CC50 (A-549): 1240 nM
- IC (TGI) (A-549): 517 nM
- GI50 (LoVo): 139 nM
- CC50 (LoVo): 581 nM
- IC (TGI) (LoVo): 285 nM
- GI50 (HT-29): 297 nM
- CC50 (HT-29): 12400 nM
- IC (TGI) (HT-29): 1540 nM
- GI50 (SK-BR-3): 20.9 nM
- CC50 (SK-BR-3): 2550 nM
- IC (TGI) (SK-BR-3): 75 nM
- GI50 (K-562): 26.4 nM
- CC50 (K-562): 12400 nM
- IC (TGI) (K-562): 94.2 nM
- GI50 (HeLa): 39.4 nM
- CC50 (HeLa): 165 nM
- IC (TGI) (HeLa): 70.8 nM
- GI50 (SK-MEL-28): 241 nM
- CC50 (SK-MEL-28): 969 nM
- IC (TGI) (SK-MEL-28): 469 nM
- GI50 (LNCaP): 29.9 nM
- CC50 (LNCaP): 240 nM
- IC (TGI) (LNCaP): 71.6 nM
- GI50 (PANC-1): 379 nM
- CC50 (PANC-1): 12400 nM
- IC (TGI) (PANC-1): 1270 nM
- GI50 (LoVo-Dox): 483 nM
- CC50 (LoVo-Dox): 12400 nM
- IC (TGI) (LoVo-Dox): 2260 nM
- GI50 (HeLa-APL): 61 nM
- CC50 (HeLa-APL): 1160 nM
- IC (TGI) (HeLa-APL): 190 nM
- GI50 (IGROV-ET): 188 nM
- CC50 (IGROV-ET): 949 nM
- IC (TGI) (IGROV-ET): 422 nM
- GI50 (IGROV-1): 93.9 nM
- CC50 (IGROV-1): 1040 nM
- IC (TGI) (IGROV-1): 305 nM
- GI50 (DU-145): 46.8 nM
- CC50 (DU-145): 12400 nM
- IC (TGI) (DU-145): 88.8 nM
